Measurements as given in patent US12252457B2, “Compositions and methods for reducing tactile dysfunction, anxiety, and social impairment” (President and Fellows of Harvard College, priority 2018, dated 2025).

System: large diameter neurons cultured from DRGs of Mecp2 and Shank3 mutant mice
Experiment: Whole cell patch-clamp recordings of cultured DRG neurons
Type: cell-based, mouse
Details: 10 μM isoguvacine
Procedure: FIGS. 27A-27K are related to FIGS. 19A-19N. FIGS. 27A-27B: Representative traces from large diameter neurons cultured from DRGs of control (FIG. 27A) and Mecp2^STOP/y (FIG. 27B) mice during whole cell current clamp recordings, in which the minimal amount of current required to elicit an action potential in each neuron (rheobase, Rh), was determined in the absence or presence of 10 μm isoguvacine. FIG. 27C: Quantification of average Rh in large diameter neurons cultured from DRGs of control mice during a baseline period and then in presence of 10 μm isoguvacine. Repeated measures one-way ANOVA, post-hoc Tukey's test, *, p<0.05. FIG. 27D: Quantification of average Rh in large diameter neurons cultured from DRGs of control mice during a baseline period, followed application of 10 μm isoguvacine, then washout period. […] FIG. 27E: Quantification of average Rh in large diameter neurons cultured from DRGs of control and Mecp2^STOP/y mice during a baseline period and then in presence of 10 μm isoguvacine. […] FIG. 27F: Quantification of average Rh in large diameter neurons cultured from DRGs of control and Shank3B^+/− mice during a baseline period and then in presence of 10 μm isoguvacine. […] FIG. 27G: Quantification of total Ih density at each hyperpolarizing voltage step for large diameter neurons cultured from DRGs of control, Mecp2^STOP/y and Shank3B^+/− mutant mice. […]

O=C(O)C1=CCNCC1 [Isoguvacine, isoguvacine]
Ih (large diameter DRG neurons): without affecting Ih
hyperexcitability phenotype (rheobase) of large diameter DRG neurons (neurons from Mecp2 and Shank3 mutant mice): reduced the hyperexcitability phenotype
